Laboratory results from PubChem BioAssay (NCI).
“And” between values parts separate entries of the source, which are not always exact repeats. Identical values can stand only once.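 96-well plates; 48 h exposure; 5 concentrations. Endpoints by linear interpolation between flanking doses. Not reached: highest tested concentration assigned. GI50 = concentration required for 50% inhibition of growth. The concentration for full growth arrest is given as TGI.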

Legend:
Experiment in all cases: DTP human tumour cell line panel, 48 h
UACC-257 melanoma = tested on: UACC-257 melanoma
SF-268 CNS = tested on: SF-268 CNS
HOP-62 NSCLC = tested on: HOP-62 NSCLC
NCI-H460 lung = tested on: NCI-H460 lung
SNB-19 CNS = tested on: SNB-19 CNS
SR leukemia = tested on: SR leukemia
786-0 renal = tested on: 786-0 renal
DU-145 prostate = tested on: DU-145 prostate
A498 renal = tested on: A498 renal
EKVX NSCLC = tested on: EKVX NSCLC

Row | Structure (SMILES) | GI50 (UACC-257 melanoma) | TGI (UACC-257 melanoma) | GI50 (SF-268 CNS) | TGI (SF-268 CNS) | GI50 (HOP-62 NSCLC) | TGI (HOP-62 NSCLC) | GI50 (NCI-H460 lung) | TGI (NCI-H460 lung) | GI50 (SNB-19 CNS) | TGI (SNB-19 CNS) | GI50 (SR leukemia) | TGI (SR leukemia) [µM] | GI50 (786-0 renal) | TGI (786-0 renal) | GI50 (DU-145 prostate) | TGI (DU-145 prostate) | GI50 (A498 renal) | TGI (A498 renal) | GI50 (EKVX NSCLC) | TGI (EKVX NSCLC)
1 | O=C(Nc1nc2c(C(F)(F)F)cccc2s1)c1cc(Cl)ccc1O | 0.273 µM | 0.821 µM | 0.422 µM | > 100 µM | 0.312 µM | 19.3 µM | 0.32 µM | 10.8 µM | 0.345 µM | 65.6 µM | 0.353 µM | 3.28 | 0.337 µM | 12.2 µM | 0.466 µM | > 100 µM | 0.181 µM | 0.519 µM | 0.25 µM | 5.75 µM
2 | Cc1cc(N(CCC#N)S(=O)(=O)c2ccccc2)ccc1C=Nc1ccc(C(=O)O)cc1 |  | 30 µM |  | > 60.7 µM |  | 46 µM |  | 29.9 µM |  | 44.8 µM |  | > 40.9 |  | 16.1 µM |  | > 100 µM |  | 44.5 µM |  | 35.8 µM
3 | O=C(Nc1ccc(Cl)c(Cl)c1)c1ccc(NC2=C(Cl)C(=O)N(Cc3ccccc3)C2=O)cc1 | 3.67 µM | 11.9 µM | 8.26 µM | 24 µM | 17.4 µM | 31.3 µM | 9.32 µM | 22.8 µM | 52.9 µM | > 100 µM | 2.23 µM | 5.27 | 7.74 µM | 20.1 µM | 4.32 µM | 16.6 µM | 17.6 µM | 36.8 µM | 23.3 µM | 48.6 µM
4 | Cc1c(C(=O)Nc2ccc(N3C[C@@H](C)O[C@@H](C)C3)nc2)cccc1-c1ccc(OC(F)(F)F)cc1 | 10.7 µM and 12.6 µM | 38 µM and 74.7 µM | 7.22 µM and 5.25 µM | 28.9 µM and 25.9 µM | 12.2 µM and 16.5 µM | 46.2 µM and 36.8 µM | 8.67 µM and 6.79 µM | > 68.6 µM and 83.7 µM | 7.85 µM and 21.3 µM | 32 µM and > 100 µM | 28.2 µM and > 100 µM | > 100 | 3.61 µM and 5.77 µM | 21 µM and 30 µM | 8.25 µM and 4.84 µM | 25.1 µM and 20.9 µM | 3.77 µM and 2.04 µM | 14 µM and 9.97 µM | 5.73 µM and 4.55 µM | 28.4 µM and 34.2 µM
5 | COc1ccc2c3ccnc(C(F)(F)F)c3n(CCCCN)c2c1 | 3.02 µM | 8.41 µM | 6.62 µM | 21.5 µM | 8.54 µM | 21.3 µM | 5.18 µM | 17.7 µM | 12.2 µM | 30.7 µM | 2.64 µM | 9.52 | 7.09 µM | 19.4 µM | 9.04 µM | 21.2 µM | 5.25 µM | 18 µM | 5.42 µM | 23.6 µM
6 | CC1=CC(C)=N/C(=N/S(=O)(=O)c2cc(C)c(Cl)cc2SCc2ccccc2)NN1 | > 100 µM | > 100 µM | 78.1 µM | > 100 µM | 82.5 µM | > 100 µM | > 100 µM | > 100 µM | > 100 µM | > 100 µM | > 100 µM | > 100 | > 100 µM | > 100 µM | > 100 µM | > 100 µM | > 100 µM | > 100 µM | 98.6 µM | > 100 µM
7 | CC1(C)OCC2OC(n3cnc4c(N)nc(Cl)nc43)C(OS(C)(=O)=O)C2O1 (centres undefined) |  | > 100 µM |  | > 100 µM |  | > 100 µM |  | > 100 µM |  | > 100 µM |  | > 100 |  | > 100 µM |  | > 100 µM |  | > 100 µM |  | > 100 µM
8 | CC1=CC2(C)/C=C(C)/C=C\CC(O)/C=C3/C=CC(=C4C(=O)OC2(CC1C)C4=O)OC3 (centres undefined) | 1.82 µM | 4.36 µM | 2.09 µM | 4.75 µM | 8.63 µM | 26.2 µM | 3.84 µM | 15.7 µM | 12 µM | 25.9 µM | 1.59 µM | > 100 | 2.25 µM | 4.94 µM | 1.81 µM | 3.59 µM | 2.65 µM | 8.11 µM | 3.09 µM | > 31.7 µM
9 | CCC(=O)OCOc1ccc(/C=C2\CCC(CN(C)C)C2=O)cc1 (centres undefined) |  | 10.6 µM |  | 22.5 µM |  | 33.5 µM |  | 32.7 µM |  | 32.5 µM |  | 9.25 |  | 6.2 µM |  | 30.6 µM |  | 30.6 µM |  | 37.9 µM
10 | O=[N+]([O-])c1ccc2c(c1)C(N1CCN(CCO)CC1)Cc1ccc(F)cc1S2 (centres undefined) |  | 7.01 µM |  | 31.4 µM |  | 43.8 µM |  | 27.3 µM |  | 24.6 µM |  | 20.6 |  | 26.4 µM |  | 29 µM |  | 25.8 µM |  | 24.1 µM
11 | Clc1ccc2c(NC3CCC(N4CCCCC4)CC3)ccnc2c1 (centres undefined) |  | 29.4 µM |  | > 100 µM |  | > 100 µM |  | 33.2 µM |  | > 100 µM |  | 35.5 |  | 41.7 µM |  | > 100 µM |  | 38.6 µM |  | > 100 µM
12 | Cc1ccc2ccccc2c1CSc1nc(N)nc2c1ncn2CC(C)C |  | > 87.3 µM |  | > 100 µM |  | > 100 µM |  | > 96.2 µM |  | > 100 µM |  | 50.6 |  | > 100 µM |  | > 100 µM |  | 99.6 µM |  | > 100 µM
13 | CC1Cc2c(Cl)ncnc2N(C)c2ccccc21 (centres undefined) | 3.76 µM | 21 µM | 2.77 µM | 91.6 µM | 3.08 µM | 14.7 µM | 3.87 µM | > 100 µM | 4.72 µM | > 100 µM | 3.33 µM | 32.6 | 3.23 µM | 11.5 µM | 4.45 µM | > 100 µM | 1.98 µM | 5.41 µM | 3.13 µM | > 100 µM
14 | C[C@]12CC[C@H]3[C@@H](CC[C@]4(O)C[C@@H](O)CC[C@]34C=O)[C@@]1(O)CC[C@@H]2C1=CC(=O)OC1 |  | 2.5 µM |  | 2 µM |  | 0.533 µM |  | 0.591 µM |  | 4.87 µM |  | > 100 |  | > 100 µM |  | 0.863 µM |  | 1.93 µM |  | 1.3 µM
15 | O=C1C=CC2C3C(=O)N(c4ccccc4)C(=O)C3C1N2Cc1ccccc1 (centres undefined) | 3.22 µM | 8.67 µM | 3.34 µM | 8.85 µM |  | 5.26 µM | 3.49 µM | 9.01 µM | 6.04 µM | 13.2 µM | 1.87 µM | 7 | 1.69 µM | 3.62 µM | 9.65 µM | 22.4 µM | 8.57 µM | 22.8 µM | 7.78 µM | 23.6 µM
16 | CC(C)[C@@H](C(=O)O[C@@H]1/C=C/C(=O)O[C@@H](C)CCC/C=C/[C@@H]2C[C@H](O)C[C@H]21)N(C)C | 20.8 µM | > 81.9 µM | 7.33 µM | > 45 µM | 22.3 µM | > 100 µM | 24.7 µM | > 76.3 µM | 37 µM | > 100 µM | 14.9 µM | 38.1 | 9.9 µM | 52.3 µM | 29.4 µM | > 100 µM | 2.54 µM | 7.97 µM | 12.5 µM | 64.9 µM
17 | COc1cc(OC)c(/C=C/C(=O)c2c(OC)cc(OC)cc2OC)c(OC)c1 | 3.58 µM | > 100 µM | 1.84 µM | 6.96 µM | 1.27 µM | > 100 µM | 0.976 µM | 7.74 µM | 2.54 µM | 14.9 µM | 0.206 µM | 0.761 | 2.02 µM | > 74.7 µM | 2.21 µM | 8.51 µM | 0.27 µM | 4.85 µM | 3.61 µM | > 100 µM
